Data from patent US20100267561A1, “HERBICIDAL PYRIDAZINONE DERIVATIVES” (priority 2007, published 2010).

Tests used:
Assay in all cases: Test B pre-/postemergence plant response
Type in all cases: in vivo
soybean (Glycine max) = settings: for Soybean plant response rating: 8 g ai/ha
How it was run: (§1)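 Visual scoring from 0 (no effect) to 100 (complete control) against untreated controls was done 13 to 15 days after greenhouse treatment. Chemicals were formulated in a surfactant-containing non-phytotoxic solvent and applied to soil preemergence or to 1- to 4-leaf (2-18 cm) plants postemergence.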

[1] = tested on: downy bromegrass (Bromus tectorum); settings: for Bromegrass, Downy plant response rating: 8 g ai/ha
How it was run: as §1

[2] = tested on: Russian thistle (Salsola iberica); settings: Preemergence
How it was run: as §1

[3] = tested on: surinam grass (Brachiaria decumbens); settings: for Surinam Grass plant response rating: 8 g ai/ha
How it was run: as §1

[4] = tested on: blackgrass (Alopecurus myosuroides); settings: for Blackgrass plant response rating: 8 g ai/ha
How it was run: as §1

[5] = tested on: catchweed bedstraw (Galium aparine); settings: Preemergence
How it was run: as §1

[6] = tested on: morningglory (Ipomoea coccinea); settings: for Morningglory plant response rating: 8 g ai/ha
How it was run: as §1

corn (Zea mays) = settings: for Corn plant response rating: 8 g ai/ha
How it was run: as §1

[7] = tested on: yellow nutsedge (Cyperus esculentus); settings: for Nutsedge, Yellow plant response rating: 8 g ai/ha
How it was run: as §1

[8] = tested on: lambsquarters (Chenopodium album); settings: for Lambsquarters plant response rating: 8 g ai/ha
How it was run: as §1

[9] = tested on: bermudagrass (Cynodon dactylon); settings: for Bermudagrass plant response rating: 8 g ai/ha
How it was run: as §1

kochia (Kochia scoparia) = settings: for Kochia plant response rating: 8 g ai/ha
How it was run: as §1

[10] = tested on: cocklebur (Xanthium strumarium); settings: for Cocklebur plant response rating: 8 g ai/ha
How it was run: as §1

[11] = tested on: wheat (Triticum aestivum); settings: for Wheat plant response rating: 8 g ai/ha
How it was run: as §1

[12] = Postemergence, 16 g ai/ha, scale 0 to 100
[13] = Postemergence, 62 g ai/ha, scale 0 to 100, 0 no effect, 100 complete control
[14] = Preemergence, 16 g ai/ha, scale 0 to 100 (0 no effect, 100 complete control)
[15] = Preemergence, 31 g ai/ha, 0 to 100 scale, 0 no effect, 100 complete control
[16] = Preemergence, 62 g ai/ha, scale 0 to 100
[17] = Postemergence, 31 g ai/ha, scale 0 to 100, 0 no effect, 100 complete control
[18] = 16 g ai/ha, scale 0 to 100 (0 no effect, 100 complete control)
[19] = 31 g ai/ha, 0 to 100 scale, 0 no effect, 100 complete control

Cc1cc(-c2ccc(Cl)cc2)nn1-c1c(OC(=O)C(C)C)cnn(C)c1=O [Compound 34]
Soybean plant response rating (soybean (Glycine max); postemergence, 0-100 scale): 0 | Plant response rating, Soybean (soybean (Glycine max); [12]): 0 | Plant response rating, Soybean (soybean (Glycine max); [13]): 0 | Plant response rating, Soybean (soybean (Glycine max); [14]): 0 | Plant response rating, Soybean (soybean (Glycine max); [15]): 0 | Plant response rating, Soybean (soybean (Glycine max); [16]): 0 | Soybean plant response rating (soybean (Glycine max); Preemergence, scale 0 to 100): 0 | Bromegrass, Downy plant response rating ([1]; postemergence, 0-100 scale): 20 | Plant response rating, Bromegrass, Downy [1, 12]: 50 | Plant response rating, Bromegrass, Downy [1, 17]: 50 | Plant response rating, Bromegrass, Downy [1, 13]: 80 | Plant response rating, Bromegrass, Downy [1, 14]: 55 | Plant response rating, Bromegrass, Downy [1, 15]: 55 | Plant response rating, Bromegrass, Downy [1, 16]: 80 | Bromegrass, Downy plant response rating ([1]; Preemergence, scale 0 to 100): 0 | Plant response rating, Russian Thistle [2, 18]: 0 | Plant response rating, Russian Thistle [2, 19]: 0 | Plant response rating, Russian Thistle ([2]; 62 g ai/ha, scale 0 to 100): 0 | Russian Thistle plant response rating ([2]; 8 g ai/ha, scale 0 to 100): 0 | Surinam Grass plant response rating ([3]; postemergence, 0-100 scale): 70 | Plant response rating, Surinam Grass [3, 12]: 80 | Plant response rating, Surinam Grass [3, 13]: 100 | Plant response rating, Surinam Grass [3, 14]: 100 | Plant response rating, Surinam Grass [3, 15]: 100 | Plant response rating, Surinam Grass [3, 16]: 100 | Surinam Grass plant response rating ([3]; Preemergence, scale 0 to 100): 95 | Blackgrass plant response rating ([4]; postemergence, 0-100 scale): 0 | Plant response rating, Blackgrass [4, 12]: 75 | Plant response rating, Blackgrass [4, 17]: 75 | Plant response rating, Blackgrass [4, 13]: 90 | Plant response rating, Blackgrass [4, 14]: 85 | Plant response rating, Blackgrass [4, 15]: 100 | Plant response rating, Blackgrass [4, 16]: 100 | Blackgrass plant response rating ([4]; Preemergence, scale 0 to 100): 0 | Plant response rating, Galium [5, 18]: 0 | Plant response rating, Galium [5, 19]: 0 | Plant response rating, Galium ([5]; 62 g ai/ha, scale 0 to 100): 0 | Galium plant response rating ([5]; 8 g ai/ha, scale 0 to 100): 0 | Morningglory plant response rating ([6]; postemergence, 0-100 scale): 0 | Plant response rating, Morningglory [6, 12]: 0 | Plant response rating, Morningglory [6, 17]: 0 | Plant response rating, Morningglory [6, 13]: 0 | Plant response rating, Morningglory [6, 14]: 0 | Plant response rating, Morningglory [6, 15]: 0 | Plant response rating, Morningglory [6, 16]: 0 | Morningglory plant response rating ([6]; Preemergence, scale 0 to 100): 0 | Corn plant response rating (corn (Zea mays); postemergence, 0-100 scale): 0 | Plant response rating, Corn (corn (Zea mays); [12]): 98 | Plant response rating, Corn (corn (Zea mays); [17]): 98 | Plant response rating, Corn (corn (Zea mays); [13]): 98 | Plant response rating, Corn (corn (Zea mays); [14]): 65 | Plant response rating, Corn (corn (Zea mays); [15]): 85 | Plant response rating, Corn (corn (Zea mays); [16]): 95 | Corn plant response rating (corn (Zea mays); Preemergence, scale 0 to 100): 0 | Nutsedge, Yellow plant response rating ([7]; postemergence, 0-100 scale): 0 | Plant response rating, Nutsedge, Yellow [7, 12]: 0 | Plant response rating, Nutsedge, Yellow [7, 17]: 0 | Plant response rating, Nutsedge, Yellow [7, 13]: 0 | Plant response rating, Nutsedge, Yellow [7, 14]: 0 | Plant response rating, Nutsedge, Yellow [7, 15]: 0 | Plant response rating, Nutsedge, Yellow [7, 16]: 0 | Nutsedge, Yellow plant response rating ([7]; Preemergence, scale 0 to 100): 0 | Lambsquarters plant response rating ([8]; postemergence, 0-100 scale): 0 | Plant response rating, Lambsquarters [8, 12]: 0 | Plant response rating, Lambsquarters [8, 17]: 0 | Plant response rating, Lambsquarters [8, 13]: 0 | Plant response rating, Lambsquarters [8, 14]: 0 | Plant response rating, Lambsquarters [8, 15]: 0 | Plant response rating, Lambsquarters [8, 16]: 0 | Lambsquarters plant response rating ([8]; Preemergence, scale 0 to 100): 0 | Bermudagrass plant response rating ([9]; postemergence, 0-100 scale): 65 | Plant response rating, Bermudagrass [9, 12]: 100 | Plant response rating, Bermudagrass [9, 17]: 100 | Plant response rating, Bermudagrass [9, 13]: 100 | Bermudagrass plant response rating ([9]; Preemergence, scale 0 to 100 (0 no effect, 100 complete control)): 50 | Plant response rating, Bermudagrass [9, 14]: 98 | Plant response rating, Bermudagrass [9, 15]: 98 | Plant response rating, Bermudagrass [9, 16]: 100 | Kochia plant response rating (kochia (Kochia scoparia); postemergence, 0-100 scale): 0 | Plant response rating, Kochia (kochia (Kochia scoparia); [12]): 0 | Plant response rating, Kochia (kochia (Kochia scoparia); [17]): 0 | Plant response rating, Kochia (kochia (Kochia scoparia); [13]): 0 | Plant response rating, Kochia (kochia (Kochia scoparia); [14]): 0 | Plant response rating, Kochia (kochia (Kochia scoparia); [15]): 0 | Plant response rating, Kochia (kochia (Kochia scoparia); [16]): 0 | Kochia plant response rating (kochia (Kochia scoparia); Preemergence, scale 0 to 100): 0 | Cocklebur plant response rating ([10]; postemergence, 0-100 scale): 0 | Plant response rating, Cocklebur [10, 12]: 0 | Plant response rating, Cocklebur [10, 17]: 0 | Plant response rating, Cocklebur [10, 13]: 0 | Plant response rating, Cocklebur [10, 14]: 0 | Plant response rating, Cocklebur [10, 15]: 0 | Plant response rating, Cocklebur [10, 16]: 0 | Cocklebur plant response rating ([10]; Preemergence, scale 0 to 100): 0 | Wheat plant response rating ([11]; postemergence, 0-100 scale): 0 | Plant response rating, Wheat [11, 12]: 40 | Plant response rating, Wheat [11, 13]: 90 | Plant response rating, Wheat [11, 14]: 0 | Plant response rating, Wheat [11, 15]: 30 | Plant response rating, Wheat [11, 16]: 40 | Wheat plant response rating ([11]; Preemergence, scale 0 to 100): 0
